In patent US20200147069A1, “Compounds for The Reduction of The Deleterious Activity of Extended Nucleotide Repeat Containing Genes” (The Board of Trustees of the Leland Stanford Junior …, priority 2017, published 2020):
pIC50: −log10 of the molar value.

Legend:
[1] = target: T1, interaction between Supt4h and NGN (Homo sapiens, UniProt O00267+P63272); assay: Split Gaussia luciferase complementation assay (M2-8 cells); type: cell-based; details: for pIC50: M2-8 cells, 24 hr, concentration at which signal was reduced to 50% of untreated
T1 construct: expressed in transfected cells
Method: i: pNBR-X1-Supt4-Gluc1 and pNEBR-X1-NGN-Gluc2 The HA-Supt4h and Flag-NGN fragments are amplified by PCR using the plasmid pHA-Supt4h-YC and pFlag-NGN-YN and sub-cloned individually into pcDNA3.1-Gluc1 and pcDNA3.1-Gluc2 (described in “A highly sensitive protein-protein interaction assay based on Gausssia luciferase” published at Nat Methods. 2006 December; 3(12):977-9. Epub 2006 Nov. 12). Then HA-Supt4h-Gluc1 and Flag-NGN-Gluc2 are amplified by PCR and inserted to pNEBR-X1-Hygro (New England BioLabs), which contain RheoSwitch responsive element under the control of RheoSwitch ligand.
PCR products containing the sequence from 5XRE to polyA in pNEBR-X1-NGN-G2 are inserted to pNEBR-X1-Supt4h-G1 at PciI site to generate Supt4h-G1 and NGN-G2 bidirectional under their own RheoSwitch responsive element and polyA in the same plasmid.
i: 293-R^1 is a cloned cell which is engineered to constitutively express RSL1 receptor/activator by transfecting HEK 293 cells with pNEBR-R^1 plasmid (New England BioLabs) and selected with Blasticidin.
ii: M2-8 is a cloned 293-R^1 cell which can inducibly express pNEBR-X1-Supt4h-G1-NGN-G2 by addition of RSL1. Two point mutations (M431 and M1101) are introduced to the GL1 and GL2 for better stability according to “A high-throughput cell-based Gaussia luciferase reporter assay for identifying modulators of fibulin-3 secretion” published on J Biomol Screen. 2013 July; 18(6):647-58. The cell line is selected by Hygromycin.
All the HEK-293 cells and derivative cell clones are maintained in DMEM containing 10% FBS plus corresponding antibiotics (250 μg/ml hygromycin B, 10 μg/ml blasticidin or both) at 37° C., 5% CO2. All the transfections are done by using lifpofectamine 2000 (Invitrogen) according to the manufacture's direction.
Plasmids harboring the Gluc1 and Gluc2 are co-transfected in a 1:1 ratio into 293-R^1 cells plated on tissue culture treated 24-well plates using Lipofectamine 2000 according to the manufacturer's instruction. For stable cell M2-8, the cells are plated into 96 well or 384 well white plate directly. 24 hours later, RheoSwitch ligand together with/without test compound is added to the cells for induction/drug treatment. After 24 hr, the cells are washed with PBS and the plate was put in −20° C. freezer for overnight. After taking out the plate from freezer, lysis buffer (30 mM Tris-HCl, pH 8.0, 5 mM NaCl, 0.1% Triton X-100) with 10 μg/ml native coelenterazine (Nanolight Technology) is immediately added to the cells. The cells are lysed at room temperature for one hour in dark. After shaking for about 1 min, 40 μl of cell lysate are transferred to a white 96 well plate. For M2-8 in white micro plate, no transfer is needed. Signal intensities (integrated 100 ms) were read on Tecan Infinite M200 or M1000.
The bioluminescence signal of Gaussia Luciferase from untreated M2-8 cells was set as 100% and the IC50 of the compound was defined as the compound concentration at which the signal intensity was reduced to 50%.
The split Gaussia luciferase complementation assay measures the interaction between Sup4h and NGN. NGN is the subunit of Supt5h that binds to Supt4h. […] Therefore, administration of Compound 1 results in decreased production of mutant proteins encoded by genes that include mutant nucleotide repeats.

mutant HTT protein = assay: Mutant HTT activity assay in induced pluripotent stem cells (iPSC); type: cell-based, human; details: iPSCs derived from a Huntington's disease patient, 24 hr, Western blot normalized by tubulin
Method: FIG. 1A-1B. iPSCs were treated with Compound 1 at different doses for 24 hr. The cells were collected and lysed for protein quantification. Equal amounts of protein were applied on SDS-PAGE gel for Western Blotting. Mutant HTT protein was recognized by polyQ antibody (MAB1574 from Millipore) while wild type HTT protein was blotted by anti-Huntingtin antibody (MAB2166 from Millipore) (FIG. 1A). Both proteins were scanned and quantified by Li-Cor Odyssey and normalized by tubulin (FIG. 1B).
Huntington disease patient iPSCs (ND36999 from Coriell Institute) were detached into single cells by Accutase (AT104 from Accutase) and plated on a 24-well plate coated with Matrigel (354277 from Corning). […] The protein concentrations were determined by BCA assay (Pierce, ThermoFisher). […] The protein level of mutant HTT, total HTT and tubulin were determined by immunoblotting with anti-poly Glutamine (MAB1574 from Millipore), anti-Huntingtin protein (MAB2166 from Millipore) and anti-alpha tubulin (AJ1034a from ABGENT). […] The band intensities were determined by Li-Cor Odyssey software.
Using the protocol reported above, iPSCs were treated with Compound 1 at various doses for 24 hr. The cells were collected and lysed for protein quantification. […] Both proteins were scanned and quantified by Li-Cor Odyssey and normalized by tubulin.

HD flies = assay: Fly viability; type: in vivo, Drosophila melanogaster; details: dose that alleviated phenotypic defects
Gmr-Htt97Q/+ HD flies = assay: Eye morphology (rough eye) analysis in Drosophila HD model; type: in vivo, Drosophila melanogaster; details: 100 μM in media
Method: FIG. 2A. The morphology of compound eye was analyzed in fruit flies treated with or without Compound 1. […] To quantify the appearance of “rough eye” in Gmr-Htt97Q/+ treated with 10 and 100 μM of Compound 1, ten flies were randomly picked from each group and the number of flies with “rough eye” phenotype were determined under microscope. Compared to untreated group, the relative percentage of HD flies with “rough eye” phenotype in treated groups is shown (right panel). Data are presented as mean±SD (N=3; **, p<0.01 by student's t test).
(§1) The Drosophila melanogaster (fruit fly) HD models used in this set of experiments carry the coding sequence of human Htt exon1 with 97 CAG repeats to mimic mutant Httof Huntington's disease (HD). The Gmr::Htt97Q fly, expressing mutant Htt primarily in the neurons of Drosophila compound eyes, has a severe degeneration of photoreceptor neurons and the phenotypic trait ‘rough eye’. The elav::Htt97Q fly expresses the mutant protein specifically in neuroblasts and glial cells in the Drosophila embryonic CNS, resulting in a substantially negative impact on eclosion. All of the fly stocks and genetics crosses were maintained at 25° C. on standard cornmeal yeast agar media. […]

elav::Htt97Q HD flies = assay: Eclosion rate analysis in Drosophila HD model; type: in vivo, Drosophila melanogaster
Method: FIG. 2B. HD fly (elav::Htt97Q) eclosion rate was measured in the presence or absence of Compound 1 treatment. 100 newly hatched flies, generated from crossing of male (elav-gal4/cyo) and female (UAS-Htt97Q/UAS-Htt97Q) flies, were collected at […]. The eclosion rate was determined by the number of HD-flies (elav::Htt97Q) vs. the number of non HD-flies (cyo::Htt97Q) (N=3; *, p<0.05 by student's t test).
as §1, with “eclosion.” for “eclosion. All of the fly stocks and genetics crosses were maintained at 25° C. on standard cornmeal yeast agar media.”
A group of 15 male flies (elav-gal4/cyo) and 15 virgin-female (UAS-Htt97Q/UAS-Htt97Q) flies were cultured in a vial that contains standard yeast agar media without or with Compound 1. […] The eclosion rate is determined by the number of HD-flies vs. the number of non HD-flies in a total of 100 collected flies in each experimental condition. […]

SMILES | pIC50 [1] | further results
Cc1ccc2[nH]c3c(c2c1)CCCC3NCc1ccccc1 (stereo not drawn) | > 6.00 | –
O=C(NC1CCCc2c1[nH]c1ccc(Cl)cc21)c1ccccn1 (stereo not drawn) | > 6.00 | –
CC(C)Oc1ccc2[nH]c3c(c2c1)CCCC3NCCc1ccccc1 (stereo not drawn) | < 6.00 | –
CC(C)Oc1ccc2[nH]c3c(c2c1)CCCC3NC1CCCC1 (stereo not drawn) | < 6.00 | –
CC(C)NC1CCCc2c1[nH]c1ccc(OC(C)C)cc21 (stereo not drawn) | < 6.00 | –
CC(C)NC1CCCc2c1[nH]c1ccc(Br)cc21 (stereo not drawn) | > 6.00 | –
Brc1ccc2[nH]c3c(c2c1)CCCC3NC1CCCC1 (stereo not drawn) | > 6.00 | –
CCN1CCC(NC2CCCc3c2[nH]c2ccccc32)CC1 (stereo not drawn) | < 6.00 | –
Cc1ccc2[nH]c3c(c2c1)CCCC3NCc1ccc(F)cc1 (stereo not drawn) | > 6.00 | –
Brc1ccc2[nH]c3c(c2c1)CCCC3NCc1ccccc1 (stereo not drawn) [Compound 1] | – | mutant HTT protein level (mutant HTT protein): decreases mutant HTT protein; fly viability (HD flies): did not affect fly viability; incidence of rough eye phenotype (Gmr-Htt97Q/+ HD flies): 70% of the untreated group; eclosion rate (elav::Htt97Q HD flies): relatively low eclosion rate was reversed; interaction between Sup4h and NGN ([1]; split Gaussia assay): interrupts the interaction between Sup4h and NGN
Brc1ccc2[nH]c3c(c2c1)CCCC3NCc1ccccc1 (stereo not drawn) [drawing 40] | > 6.00 | –
